From paper PMC6478789, “A chemical toolbox for the study of bromodomains and epigenetic signaling” (Nature Communications, 2019)
Like-named read-outs stand apart in the source and are kept apart here. One block for each molecule: values may come before it.

Legend:
ATAD2B = target: T1, ATAD2B (Homo sapiens, UniProt Q9ULI0); test: BROMOscan ligand-binding assay
T1 sequence (Q9ULI0 951-1066 limits assumed): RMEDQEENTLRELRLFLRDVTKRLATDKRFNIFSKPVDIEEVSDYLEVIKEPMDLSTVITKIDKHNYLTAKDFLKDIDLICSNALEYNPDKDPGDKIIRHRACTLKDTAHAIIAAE
Description: (§2) BROMOscan is a binding assay based on the well-known KINOMEscan technology. This assay measures the binding of a DNA-tagged bromodomain to an immobilized BRD ligand. If an inhibitor is present, it will compete with the bromodomain binding to the immobilized ligand, resulting in reduction of a quantitative PCR (qPCR) signal in a dose-dependent manner.

CREBBP = CREBBP (Homo sapiens, UniProt Q92793); test: BROMOscan ligand-binding assay
Chain of CREBBP (Q92793 1085-1192 limits assumed): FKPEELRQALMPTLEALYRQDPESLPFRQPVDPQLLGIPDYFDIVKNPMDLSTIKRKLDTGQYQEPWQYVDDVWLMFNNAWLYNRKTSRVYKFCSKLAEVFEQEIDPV
Description: as §2

AAK1 = target: T2, AAK1 (Homo sapiens, UniProt Q2M2I8); test: Temperature shift assay (protein kinases); format: binding; settings: 10 μM probe; average of three measurements
T2 construct: Recombinant protein domains (bromodomain or kinases) at a concentration of 2 μM
T2 sequence (Q2M2I8 46-315 limits assumed, species assumed): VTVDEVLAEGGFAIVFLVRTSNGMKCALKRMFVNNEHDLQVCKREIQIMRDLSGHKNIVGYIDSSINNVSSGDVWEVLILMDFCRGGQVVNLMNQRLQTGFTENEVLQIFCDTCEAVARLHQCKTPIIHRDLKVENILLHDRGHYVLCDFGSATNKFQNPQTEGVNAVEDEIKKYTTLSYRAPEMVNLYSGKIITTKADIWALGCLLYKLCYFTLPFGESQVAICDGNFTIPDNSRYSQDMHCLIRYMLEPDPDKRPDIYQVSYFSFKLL
Description: (§1) Temperature shift assays have been described by Fedorov et al.[46]. Recombinant protein domains (bromodomain or kinases) at a concentration of 2 μM in 10 mM HEPES, pH 7.5, and 500 mM NaCl were mixed with 10 μM of chemical probes. Temperature-dependent protein unfolding profiles were measured using a Real-Time PCR Mx3005p machine (Stratagene).

AURKB = target: T3, AURKB (Homo sapiens, UniProt Q96GD4); test: Temperature shift assay (protein kinases); format: binding; settings: 10 μM probe; average of three measurements
T3 construct: Recombinant protein domains (bromodomain or kinases) at a concentration of 2 μM
T3 sequence (Q96GD4 77-327 limits assumed, species assumed): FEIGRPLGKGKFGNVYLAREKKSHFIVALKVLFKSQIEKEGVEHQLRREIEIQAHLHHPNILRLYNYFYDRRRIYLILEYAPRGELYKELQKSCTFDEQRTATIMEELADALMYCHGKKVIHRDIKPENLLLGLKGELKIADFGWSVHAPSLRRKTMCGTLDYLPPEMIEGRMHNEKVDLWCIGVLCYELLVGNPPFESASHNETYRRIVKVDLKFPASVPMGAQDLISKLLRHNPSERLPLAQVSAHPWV
Description: as §1

BMX = target: T4, BMX (Homo sapiens, UniProt P51813); test: Temperature shift assay (protein kinases); format: binding; settings: 10 μM probe; average of three measurements
T4 construct: Recombinant protein domains (bromodomain or kinases) at a concentration of 2 μM
T4 sequence (P51813 417-675 limits assumed, species assumed): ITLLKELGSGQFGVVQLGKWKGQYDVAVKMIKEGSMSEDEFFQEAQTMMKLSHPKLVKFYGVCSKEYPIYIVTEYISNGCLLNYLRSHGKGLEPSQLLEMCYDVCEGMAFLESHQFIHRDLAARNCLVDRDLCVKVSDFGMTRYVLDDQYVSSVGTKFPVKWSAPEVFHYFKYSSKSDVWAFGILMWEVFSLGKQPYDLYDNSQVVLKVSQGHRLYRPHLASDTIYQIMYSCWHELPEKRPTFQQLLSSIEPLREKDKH
Description: as §1

CAMKK2 = target: T5, CAMKK2 (Homo sapiens, UniProt Q96RR4); test: Temperature shift assay (protein kinases); format: binding; settings: 10 μM probe; average of three measurements
T5 construct: Recombinant protein domains (bromodomain or kinases) at a concentration of 2 μM
T5 sequence (Q96RR4 165-446 limits assumed, species assumed): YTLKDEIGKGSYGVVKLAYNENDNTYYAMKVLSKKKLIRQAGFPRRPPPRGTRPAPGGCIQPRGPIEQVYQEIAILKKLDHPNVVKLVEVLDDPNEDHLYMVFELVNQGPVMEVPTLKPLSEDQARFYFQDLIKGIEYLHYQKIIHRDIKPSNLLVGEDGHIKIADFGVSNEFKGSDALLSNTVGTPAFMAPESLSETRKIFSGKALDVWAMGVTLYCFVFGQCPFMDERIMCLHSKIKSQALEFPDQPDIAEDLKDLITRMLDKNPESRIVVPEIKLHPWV
Description: as §1

CK2A1 = target: T6, CK2A1 (Homo sapiens, UniProt P68400); test: Temperature shift assay (protein kinases); format: binding; settings: 10 μM probe; average of three measurements
T6 construct: Recombinant protein domains (bromodomain or kinases) at a concentration of 2 μM
T6 sequence (P68400 39-324 limits assumed): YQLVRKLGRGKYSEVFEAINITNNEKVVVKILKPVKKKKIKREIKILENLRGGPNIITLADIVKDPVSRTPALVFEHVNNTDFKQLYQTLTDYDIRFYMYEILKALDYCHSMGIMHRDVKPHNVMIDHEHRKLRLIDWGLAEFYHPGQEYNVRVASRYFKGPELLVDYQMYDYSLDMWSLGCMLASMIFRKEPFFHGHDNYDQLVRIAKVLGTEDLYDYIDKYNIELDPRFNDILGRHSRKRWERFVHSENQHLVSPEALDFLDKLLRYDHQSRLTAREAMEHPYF
Description: as §1

CSNK1D = target: T7, CSNK1D (Homo sapiens, UniProt P48730); test: Temperature shift assay (protein kinases); format: binding; settings: 10 μM probe; average of three measurements
T7 construct: Recombinant protein domains (bromodomain or kinases) at a concentration of 2 μM
T7 sequence (P48730 9-277 limits assumed): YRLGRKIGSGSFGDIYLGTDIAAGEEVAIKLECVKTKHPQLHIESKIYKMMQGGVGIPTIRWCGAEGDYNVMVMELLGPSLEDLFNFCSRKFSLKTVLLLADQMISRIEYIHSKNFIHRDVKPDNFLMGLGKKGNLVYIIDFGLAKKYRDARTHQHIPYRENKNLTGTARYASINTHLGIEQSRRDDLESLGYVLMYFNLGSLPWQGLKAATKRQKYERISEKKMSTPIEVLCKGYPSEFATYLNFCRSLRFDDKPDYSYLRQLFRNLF
Description: as §1

DAPK3 = target: T8, DAPK3 (Homo sapiens, UniProt O43293); test: Temperature shift assay (protein kinases); format: binding; settings: 10 μM probe; average of three measurements
T8 construct: Recombinant protein domains (bromodomain or kinases) at a concentration of 2 μM
T8 sequence (O43293 13-275 limits assumed, species assumed): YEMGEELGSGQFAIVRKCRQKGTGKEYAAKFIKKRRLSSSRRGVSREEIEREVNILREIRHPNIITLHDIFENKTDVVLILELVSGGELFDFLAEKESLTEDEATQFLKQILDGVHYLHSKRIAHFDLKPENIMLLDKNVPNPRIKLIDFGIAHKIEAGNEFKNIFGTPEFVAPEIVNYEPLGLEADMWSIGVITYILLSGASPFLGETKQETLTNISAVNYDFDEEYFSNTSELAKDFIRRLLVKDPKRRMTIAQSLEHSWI
Description: as §1

EPHA2 = target: T9, EPHA2 (Homo sapiens, UniProt P29317); test: Temperature shift assay (protein kinases); format: binding; settings: 10 μM probe; average of three measurements
T9 construct: Recombinant protein domains (bromodomain or kinases) at a concentration of 2 μM
T9 sequence (P29317 613-875 limits assumed): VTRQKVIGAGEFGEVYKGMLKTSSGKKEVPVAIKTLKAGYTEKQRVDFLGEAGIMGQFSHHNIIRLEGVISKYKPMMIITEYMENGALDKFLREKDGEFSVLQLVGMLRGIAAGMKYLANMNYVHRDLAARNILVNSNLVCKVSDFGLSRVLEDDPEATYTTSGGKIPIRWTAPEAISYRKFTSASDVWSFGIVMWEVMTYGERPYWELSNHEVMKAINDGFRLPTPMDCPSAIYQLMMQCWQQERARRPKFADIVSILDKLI
Description: as §1

GPRK5 = target: T10, GPRK5 (Homo sapiens, UniProt P34947); test: Temperature shift assay (protein kinases); format: binding; settings: 10 μM probe; average of three measurements
T10 construct: Recombinant protein domains (bromodomain or kinases) at a concentration of 2 μM
T10 sequence (P34947 186-448 limits assumed, species assumed): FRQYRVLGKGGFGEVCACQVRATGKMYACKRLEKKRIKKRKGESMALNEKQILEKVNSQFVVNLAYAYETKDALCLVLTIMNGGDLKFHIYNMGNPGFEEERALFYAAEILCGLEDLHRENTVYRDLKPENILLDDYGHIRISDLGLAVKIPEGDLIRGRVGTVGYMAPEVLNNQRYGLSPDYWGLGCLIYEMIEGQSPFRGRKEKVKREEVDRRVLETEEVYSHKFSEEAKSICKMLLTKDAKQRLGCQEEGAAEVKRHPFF
Description: as §1

GSG2 = target: T11, GSG2 (Homo sapiens, UniProt Q8TF76); test: Temperature shift assay (protein kinases); format: binding; settings: 10 μM probe; average of three measurements
T11 construct: Recombinant protein domains (bromodomain or kinases) at a concentration of 2 μM
T11 sequence (Q8TF76 484-798 limits assumed): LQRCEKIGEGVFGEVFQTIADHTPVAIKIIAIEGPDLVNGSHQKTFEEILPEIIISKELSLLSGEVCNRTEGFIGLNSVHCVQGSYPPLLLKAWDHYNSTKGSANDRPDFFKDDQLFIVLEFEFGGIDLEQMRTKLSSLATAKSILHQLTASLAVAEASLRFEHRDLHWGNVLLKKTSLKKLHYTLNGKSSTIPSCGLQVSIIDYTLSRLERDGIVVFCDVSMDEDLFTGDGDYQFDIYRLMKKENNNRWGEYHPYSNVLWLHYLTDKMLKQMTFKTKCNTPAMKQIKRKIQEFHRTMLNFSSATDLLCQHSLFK
Description: as §1

MAPK1 = target: T12, MAPK1 (Homo sapiens, UniProt P28482); test: Temperature shift assay (protein kinases); format: binding; settings: 10 μM probe; average of three measurements
T12 construct: Recombinant protein domains (bromodomain or kinases) at a concentration of 2 μM
T12 sequence (P28482 25-313 limits assumed, species assumed): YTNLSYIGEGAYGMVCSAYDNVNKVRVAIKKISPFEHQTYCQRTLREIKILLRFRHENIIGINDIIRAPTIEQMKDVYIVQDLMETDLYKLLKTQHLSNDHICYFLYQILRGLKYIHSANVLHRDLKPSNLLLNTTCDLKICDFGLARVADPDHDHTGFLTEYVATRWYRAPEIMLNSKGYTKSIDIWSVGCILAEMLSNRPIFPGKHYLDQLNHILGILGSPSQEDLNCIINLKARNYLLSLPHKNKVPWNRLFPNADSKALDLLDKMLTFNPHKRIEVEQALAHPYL
Description: as §1

MAPK8 = target: T13, MAPK8 (Homo sapiens, UniProt P45983); test: Temperature shift assay (protein kinases); format: binding; settings: 10 μM probe; average of three measurements
T13 construct: Recombinant protein domains (bromodomain or kinases) at a concentration of 2 μM
T13 sequence (P45983 26-321 limits assumed, species assumed): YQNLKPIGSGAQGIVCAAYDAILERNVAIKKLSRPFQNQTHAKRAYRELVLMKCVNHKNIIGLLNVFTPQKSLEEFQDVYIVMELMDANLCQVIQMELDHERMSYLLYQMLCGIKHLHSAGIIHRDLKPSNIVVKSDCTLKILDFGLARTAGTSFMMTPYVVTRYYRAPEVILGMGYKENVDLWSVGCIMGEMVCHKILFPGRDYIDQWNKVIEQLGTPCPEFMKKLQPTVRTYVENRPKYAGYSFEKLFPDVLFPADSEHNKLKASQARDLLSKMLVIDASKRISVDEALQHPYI
Description: as §1

PAK4 = target: T14, PAK4 (Homo sapiens, UniProt O96013); test: Temperature shift assay (protein kinases); format: binding; settings: 10 μM probe; average of three measurements
T14 construct: Recombinant protein domains (bromodomain or kinases) at a concentration of 2 μM
T14 sequence (O96013 321-572 limits assumed, species assumed): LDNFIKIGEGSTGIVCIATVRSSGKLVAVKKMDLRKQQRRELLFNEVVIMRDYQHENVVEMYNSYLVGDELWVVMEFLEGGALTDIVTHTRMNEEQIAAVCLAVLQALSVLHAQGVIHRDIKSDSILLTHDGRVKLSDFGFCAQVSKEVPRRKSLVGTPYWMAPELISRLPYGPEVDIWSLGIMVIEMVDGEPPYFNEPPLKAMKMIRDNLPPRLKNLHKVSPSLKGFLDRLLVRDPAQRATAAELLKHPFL
Description: as §1

PIM1 = target: T15, PIM1 (Homo sapiens, UniProt P11309); test: Temperature shift assay (protein kinases); format: binding; settings: 10 μM probe; average of three measurements
T15 construct: Recombinant protein domains (bromodomain or kinases) at a concentration of 2 μM
T15 sequence (P11309 38-290 limits assumed, species assumed): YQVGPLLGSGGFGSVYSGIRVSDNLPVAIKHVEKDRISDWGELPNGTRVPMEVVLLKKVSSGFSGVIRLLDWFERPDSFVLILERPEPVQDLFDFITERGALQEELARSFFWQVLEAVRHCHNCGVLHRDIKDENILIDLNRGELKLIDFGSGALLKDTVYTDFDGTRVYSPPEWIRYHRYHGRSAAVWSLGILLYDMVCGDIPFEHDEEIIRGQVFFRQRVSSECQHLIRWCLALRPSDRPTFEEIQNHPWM
Description: as §1

RPS6KA1 = test: Temperature shift assay (protein kinases); format: binding; settings: 10 μM probe; average of three measurements
Description: as §1

STK10 = target: T16, STK10 (Homo sapiens, UniProt O94804); test: Temperature shift assay (protein kinases); format: binding; settings: 10 μM probe; average of three measurements
T16 construct: Recombinant protein domains (bromodomain or kinases) at a concentration of 2 μM
T16 sequence (O94804 36-294 limits assumed, species assumed): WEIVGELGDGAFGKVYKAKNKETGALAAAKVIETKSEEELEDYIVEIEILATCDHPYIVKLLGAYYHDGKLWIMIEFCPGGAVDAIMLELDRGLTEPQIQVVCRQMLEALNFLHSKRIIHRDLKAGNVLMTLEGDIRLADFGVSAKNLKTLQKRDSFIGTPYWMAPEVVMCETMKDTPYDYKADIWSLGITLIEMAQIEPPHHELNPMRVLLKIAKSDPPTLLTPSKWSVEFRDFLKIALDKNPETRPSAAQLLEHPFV
Description: as §1

BRPF3 = target: T17, BRPF3 (Homo sapiens, UniProt Q9ULD4); test: BROMOscan ligand-binding assay
T17 sequence (Q9ULD4 589-693 limits assumed): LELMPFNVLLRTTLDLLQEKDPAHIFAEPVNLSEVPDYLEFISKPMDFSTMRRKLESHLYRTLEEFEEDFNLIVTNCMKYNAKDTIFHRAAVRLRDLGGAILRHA
Description: as §2

BAZ1B = target: T18, BAZ1B (Homo sapiens, UniProt Q9UIG0); test: BROMOscan ligand-binding assay
T18 sequence (Q9UIG0 1339-1443 limits assumed): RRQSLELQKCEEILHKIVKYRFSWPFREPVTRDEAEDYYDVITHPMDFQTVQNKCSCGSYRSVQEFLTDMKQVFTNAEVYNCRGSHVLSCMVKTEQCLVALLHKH
Description: as §2

SMARCA2(iso.A) = SMARCA2(iso.A) (Homo sapiens, UniProt P51531); test: BROMOscan ligand-binding assay
Chain of SMARCA2(iso.A) (P51531 1378-1506 limits assumed): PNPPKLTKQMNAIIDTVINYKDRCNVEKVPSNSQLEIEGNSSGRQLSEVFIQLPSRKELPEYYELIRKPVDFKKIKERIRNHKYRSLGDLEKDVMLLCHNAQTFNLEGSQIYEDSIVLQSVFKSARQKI
Description: as §2

[1] = KD (BROMOscan), sheet prints no unit (nM)
[2] = read-out: KD (BROMOscan), sheet prints no unit (nM)

- Kd (ATAD2B; ATAD2B): 29000 nM
- Kd (CREBBP; CREBBP): 45000 nM
SMILES: COc1cc2c(cc1NS(=O)(=O)c1ccc(Br)cc1C)n(C)c(=O)n2C [OF-1]

- Kd (ATAD2B; [1]): > 30000 nM
- Kd (ATAD2B; KD, ATAD2B): > 100000 nM
- Kd (BAZ1B; [1]): > 30000 nM
- Kd (BAZ1B; KD, BAZ1B): > 100000 nM
- Kd (BRPF3; [1]): > 30000 nM
- Kd (BRPF3; KD, BRPF3): > 100000 nM
- Kd (CREBBP; [1]): > 30000 nM
- Kd (CREBBP; KD, CREBBP): > 100000 nM
SMILES: O=C(C=CN1CC2CC1CN2c1ccccn1)c1ccccc1O (stereo not drawn) [PFI-3]

The remaining lines, values behind:

SMILES: Cc1nnc2c3ccccc3c(N[C@@H](C)[C@H](c3ccccc3)N(C)C)nn12 [L-Moses]
- Temperature shift (AAK1): -1.6 Kelvin
- Temperature shift (AURKB): 0.4 Kelvin
- Temperature shift (BMX): -0.1 Kelvin
- Temperature shift (CAMKK2): -0.1 Kelvin
- Temperature shift (CK2A1): -0.1 Kelvin
- Temperature shift (CSNK1D): 0.6 Kelvin
- Temperature shift (DAPK3): 0.2 Kelvin
- Temperature shift (EPHA2): 1.1 Kelvin
- Temperature shift (GPRK5): -0.3 Kelvin
- Temperature shift (GSG2): 0.1 Kelvin
- Temperature shift (MAPK1): 0.1 Kelvin
- Temperature shift (MAPK8): 0.6 Kelvin
- Temperature shift (PAK4): -0.3 Kelvin
- Temperature shift (PIM1): 2.3 Kelvin
- Temperature shift (RPS6KA1): 0.2 Kelvin
- Temperature shift (STK10): -0.4 Kelvin

SMILES: CCCS(=O)(=O)c1nc(NC2CC2)cc(-c2ccc3c(ccn3C3CC(C)(C)NC(C)(C)C3)c2)n1 [NVS-CECR2-1]
- Kd (ATAD2B): > 30000 nM
- Kd (BRPF3): > 30000 nM
- Kd (CREBBP): > 30000 nM

SMILES: CCC(=O)N1CCOc2c(cc(-c3ccc(OC)c(OC)c3)cc2OCC2CCCN(C)C2)C1 (stereo not drawn) [I-CBP112]
- Temperature shift (AAK1): -0.7 Kelvin
- Temperature shift (AURKB): 0.3 Kelvin
- Temperature shift (BMX): -0.1 Kelvin
- Temperature shift (CAMKK2): -0.4 Kelvin
- Temperature shift (CK2A1): -1.9 Kelvin
- Temperature shift (CSNK1D): 0.5 Kelvin
- Temperature shift (DAPK3): 0.0 Kelvin
- Temperature shift (EPHA2): 1.1 Kelvin
- Temperature shift (GPRK5): -0.4 Kelvin
- Temperature shift (GSG2): 0.1 Kelvin
- Temperature shift (MAPK1): 0.2 Kelvin
- Temperature shift (MAPK8): 0.3 Kelvin
- Temperature shift (PAK4): -0.2 Kelvin
- Temperature shift (PIM1): -0.1 Kelvin
- Temperature shift (RPS6KA1): 0.1 Kelvin
- Temperature shift (STK10): -0.4 Kelvin
- Kd (ATAD2B; KD, BROMOscan Gene Symbol ATAD2B): 71000 nM
- Kd (BAZ1B; [1]): > 30000 nM
- Kd (BAZ1B; KD, BROMOscan Gene Symbol BAZ1B): > 100000 nM
- Kd (BRPF3; KD, BRPF3): 95000 nM
- Kd (CREBBP; KD, CREBBP): 60 nM
- Kd (SMARCA2(iso.A); [1]): > 30000 nM
- Kd (SMARCA2(iso.A); KD, SMARCA2(iso.A)): > 100000 nM

SMILES: O=C(C=CN1[C@H]2CC[C@@H]1c1ncnc(NC3CC3)c1C2)c1ccccc1O [PFI-3 D1]
- Kd (ATAD2B; BROMOscan, ATAD2B): > 30000 nM
- Kd (BRPF3; BROMOscan, BRPF3): > 30000 nM
- Kd (CREBBP; BROMOscan, CREBBP): > 30000 nM

SMILES: Cc1noc(C)c1-c1ccc2c(c1)nc(CCc1ccccc1)n2CCN1CCOCC1 [CBP30-298]
- Kd (ATAD2B; BROMOscan Gene Symbol ATAD2B): > 50000 nM
- Kd (ATAD2B; [2]): > 30000 nM
- Kd (BRPF3; BROMOscan Gene Symbol BRPF3): > 50000 nM
- Kd (BRPF3; [2]): > 30000 nM
- Kd (CREBBP; BROMOscan Gene Symbol CREBBP): 140 nM
